Key:
Test in all cases: relative viability (nuclei count vs DMSO), 5 days (fraction); higher = more cells survive
[1] = compound: CC(C)=CC[C@@H](O)C1=CC(=O)c2c(O)ccc(O)c2C1=O [Shikonin] + Cc1cc(Nc2cc(N3CCN(C)CC3)nc(Sc3ccc(NC(=O)C4CC4)cc3)n2)n[nH]1 [Tozasertib] (partner 0.1 µM)
How it was run: (§1)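 Lung cancer cell lines were seeded in 1536-well plates and dosed by pin tool the next day, with either a single drug or a fixed anchor-drug dose combined with five library-drug doses (not always all listed) spaced in √10 steps. Five days later, one step fixed the cells and stained their nuclei (final 0.05% Triton X-100, 1% formaldehyde, 1 ug/ml Hoechst), and nuclei were counted on 4× images. Relative viability is the nuclei count in treated wells divided by the count in vehicle wells, and each value is the median of duplicate plates.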

[2] = compound: CC(C)N(CCCNC(=O)Nc1ccc(C(C)(C)C)cc1)C[C@H]1O[C@@H](n2ccc3c(N)ncnc32)[C@H](O)[C@@H]1O + CC(C)C[C@H](NC(=O)[C@H](Cc1ccccc1)NC(=O)c1cnccn1)B(O)O [Bortezomib] (partner 0.002 µM)
How it was run: as §1

[3] = compound: CC(C)N(CCCNC(=O)Nc1ccc(C(C)(C)C)cc1)C[C@H]1O[C@@H](n2ccc3c(N)ncnc32)[C@H](O)[C@@H]1O + C[C@]1(O)C[C@@H](c2nc(-c3ccc4ccc(-c5ccccc5)nc4c3)c3c(N)nccn32)C1 [Linsitinib] (partner 1 µM)
How it was run: as §1

[4] = compound: CC(C)N(CCCNC(=O)Nc1ccc(C(C)(C)C)cc1)C[C@H]1O[C@@H](n2ccc3c(N)ncnc32)[C@H](O)[C@@H]1O + COc1cc2c(Oc3ccc(NC(=O)C4(C(=O)Nc5ccc(F)cc5)CC4)cc3F)ccnc2cc1OCCCN1CCOCC1 [Foretinib] (partner 0.25 µM)
How it was run: as §1

Cell Line	relative viability ([1]; first compound 0.01 µM)	relative viability ([1]; first compound 0.1 µM)	relative viability ([1]; first compound 0.3162 µM)	relative viability ([1]; first compound 1 µM)	relative viability ([2]; first compound 0.08 µM)	relative viability ([2]; first compound 0.253 µM)	relative viability ([2]; first compound 0.8 µM)	relative viability ([2]; first compound 2.53 µM)	relative viability ([2]; first compound 8 µM)	relative viability ([3]; first compound 0.08 µM)	relative viability ([3]; first compound 0.253 µM)	relative viability ([3]; first compound 0.8 µM)	relative viability ([3]; first compound 2.53 µM)	relative viability ([3]; first compound 8 µM)	relative viability ([4]; first compound 0.08 µM)	relative viability ([4]; first compound 0.253 µM)	relative viability ([4]; first compound 0.8 µM)	relative viability ([4]; first compound 2.53 µM)	relative viability ([4]; first compound 8 µM)
NCI-H522	0.599	0.555	0.615	0.572															
NCI-H1299					1.03	0.987	0.966	1.04	1.04	0.876	1.02	0.97	0.918	0.942	1.05	1.08	1.08	1.1	1.01
NCI-H1395	0.794	0.842	0.806	0.763						1.09	0.881		1.07	0.987	0.957	0.839	0.909	0.967	0.853
NCI-H1563					0.844	0.811	0.626	0.873	0.902	1.16	1.14	1.32	1.27	1.18	0.952	0.975	0.988	0.957	0.931
NCI-H1648	0.537	0.404	0.471	0.408															
NCI-H1650	0.419	0.367	0.365	0.3	0.185	0.205		0.205	0.201						1.12	0.939		1.32	0.987
NCI-H1703					0.244	0.316	0.273	0.381	0.307	0.67	0.515		0.721	0.612	0.294	0.33		0.403	0.401
NCI-H1792					0.932	0.839	0.979	0.945	1.01	0.534	0.503	0.393	0.52	0.535					
NCI-H1793	0.353	0.322	0.332	0.498						0.818		0.747	0.86	0.784	0.709		0.677	0.606	0.621
NCI-H1944	0.241	0.22	0.29	0.257						1.09	1.15	1.17	1.22	1.16	0.811	0.88	0.958	0.919	0.882
NCI-H2170	0.68	0.494	0.695	0.739											0.967	0.987	0.995	0.992	0.977
NCI-H2342	0.408	0.494	0.502	0.507											0.931	0.9	0.9	1.21	1
SK-MES-1	1.1	1.05	0.998	0.857						1.06	1.17	1.11	1.09	1.06	0.792	0.848	0.881	1	0.804
SW 900	0.546	0.458	0.527	0.536											0.737	0.893		1.09	0.952
